Data reported in patent publication US4200628A, “Novel aminoglycoside derivatives” (Shionogi & Co., Ltd., priority 1977, dated 1980).
Values after ≈ are worked out from the molar mass of the structure shown. Where two headings read alike, the source gives them in different places.

Key:
Experiment in all cases: MIC, antimicrobial activity
[1] = system: Escherichia coli NIHJ JC-2; details: for Minimum Inhibitory Concentration (MIC): Escherichia coli NIHJ JC-2; for MIC: Escherichia coli, NIHJJC2, read-out: Minimum Inhibitory Concentration (MIC), Escherichia coli NIHJ JC-2
Proteus inconstans In-27 = assay type: cell-based; details: for MIC: Providencia alcalifaciens, IN27, read-out: Minimum Inhibitory Concentration (MIC), Proteus inconstans In-27, tobramycin resistant strain
[2] = system: Klebsiella pneumoniae Kl-38; details: for Minimum Inhibitory Concentration (MIC): Klebsiella pneumoniae Kl-38; for MIC: Klebsiella pneumoniae, KL38, read-out: Minimum Inhibitory Concentration (MIC), Klebsiella pneumoniae Kl-38
Proteus rettgeri Ret 40 = details: for Minimum Inhibitory Concentration (MIC): Proteus rettgeri Ret 40; for MIC: Providencia rettgeri, RET40, read-out: Minimum Inhibitory Concentration (MIC), Proteus rettgeri Ret 40
[3] = system: Pseudomonas aeruginosa Ps-24; details: for Minimum Inhibitory Concentration (MIC): Pseudomonas aeruginosa Ps-24; for MIC: Pseudomonas aeruginosa, PS24, read-out: Minimum Inhibitory Concentration (MIC), Pseudomonas aeruginosa Ps-24
[4] = system: Escherichia coli W-677/JR-762; details: for Minimum Inhibitory Concentration (MIC): Escherichia coli W-677/JR-762, tobramycin resistant strain; for MIC: Escherichia coli, W677/JR762, read-out: Minimum Inhibitory Concentration (MIC), Escherichia coli W-677/JR-762, tobramycin resistant strain
[5] = system: Enterobacter cloacae TB-718; assay type: cell-based; details: for Minimum Inhibitory Concentration (MIC): Enterobacter cloacae TB-718; for MIC: Enterobacter cloacae, TB718, Enterobacter cloacae TB-718, read-out: Minimum Inhibitory Concentration (MIC)
[6] = system: Pseudomonas aeruginosa PP-6; details: for MIC: Pseudomonas aeruginosa
Proteus mirabilis TB-617 = assay type: cell-based; details: for Minimum Inhibitory Concentration (MIC): Proteus mirabilis TB-617; for MIC: Proteus mirabilis, TB617, Proteus mirabilis TB-617, read-out: Minimum Inhibitory Concentration (MIC)
[7] = system: Staphylococcus aureus FDAJC; details: for MIC: Staphylococcus aureus, read-out: Minimum Inhibitory Concentration (MIC), Staphylococcus aureus FDAJC
[8] = system: Serratia marcescens ATCC 13880; details: Serratia marcescens
[9] = PP6, read-out: Minimum Inhibitory Concentration (MIC), Pseudomonas aeruginosa PP-6, tobramycin resistant strain
[10] = ATCC13880, read-out: Minimum Inhibitory Concentration (MIC)
[11] = ATCC13880, read-out: Minimum Inhibitory Concentration (MIC), Serratia marcescens ATCC 13880
[12] = PP6, read-out: Minimum Inhibitory Concentration (MIC)

Structure (SMILES) | Minimum Inhibitory Concentration (MIC) [1] [µg/mL] | MIC (Proteus inconstans In-27) [µg/mL] | Minimum Inhibitory Concentration (MIC) [2] [µg/mL] | Minimum Inhibitory Concentration (MIC) (Proteus rettgeri Ret 40) [µg/mL] | Minimum Inhibitory Concentration (MIC) [3] [µg/mL] | Minimum Inhibitory Concentration (MIC) [4] [µg/mL] | Minimum Inhibitory Concentration (MIC) [5] [µg/mL] | MIC [6, 9] [µg/mL] | Minimum Inhibitory Concentration (MIC) (Proteus mirabilis TB-617) [µg/mL] | MIC [7] [µg/mL] | MIC [8, 10] [µg/mL] | MIC [8, 11] [µg/mL] | MIC [1] [µg/mL] | MIC [2] [µg/mL] | MIC (Proteus rettgeri Ret 40) [µg/mL] | MIC [3] [µg/mL] | MIC [4] [µg/mL] | MIC [5] [µg/mL] | MIC [6, 12] [µg/mL] | MIC (Proteus mirabilis TB-617) [µg/mL] | other results
NC[C@H]1O[C@H](O[C@H]2[C@H](O)[C@@H](O[C@H]3O[C@H](CO)[C@@H](O)[C@H](N)[C@H]3O)[C@H](NC(=O)C(O)C3CNCCN3)C[C@@H]2N)[C@H](N)C[C@@H]1O (single isomer, unassigned) [(8), 1-N-[2-hydroxy-2-(piperazin-2-yl)acetyl]tobramycin] | 1.6 | 100 (≈ 164 µM) | 0.8 | 0.8 | 0.8 | 3.1 | 0.8 | 12.5 (≈ 20.5 µM) | 1.6 | 0.1 (≈ 0.164 µM) | 25 (≈ 41 µM) |  |  |  |  |  |  |  |  |  | 
NC[C@H]1O[C@H](O[C@H]2[C@H](O)[C@@H](O[C@H]3O[C@H](CO)[C@@H](O)[C@H](N)[C@H]3O)[C@H](NC(=O)C(O)C3CNCCN3)C[C@@H]2N)[C@H](N)C[C@@H]1O (single isomer, unassigned) [(9), 1-N-[2-hydroxy-2-(piperazin-2-yl)acetyl]tobramycin] | 25.0 |  | 6.2 | 3.1 | 3.1 | 25.0 | 12.5 |  | 6.2 |  |  | 100 (≈ 164 µM) |  |  |  |  |  |  |  |  | Minimum Inhibitory Concentration (MIC) (Proteus inconstans In-27; Proteus inconstans In-27, tobramycin resistant strain): > 100.0 µg/mL; Minimum Inhibitory Concentration (MIC) ([6]; Pseudomonas aeruginosa PP-6, tobramycin resistant strain): 25.0 µg/mL; Minimum Inhibitory Concentration (MIC) ([7]; Staphylococcus aureus FDAJC): 0.1 µg/mL
NC[C@H]1O[C@H](O[C@H]2[C@H](O)[C@@H](O[C@H]3O[C@H](CO)[C@@H](O)[C@H](N)[C@H]3O)[C@H](NC(=O)C(O)C3CCNC3)C[C@@H]2N)[C@H](N)C[C@@H]1O (stereo partly shown) [(1), 1-N-[2-hydroxy-2-(pyrrolidin-3-yl)acetyl]tobramycin] |  | 100 (≈ 168 µM) |  |  |  |  |  |  |  | 0.1 (≈ 0.168 µM) |  | 12.5 (≈ 21 µM) | 1.6 (≈ 2.69 µM) | 0.8 (≈ 1.35 µM) | 0.8 (≈ 1.35 µM) | 1.6 (≈ 2.69 µM) | 6.2 (≈ 10.4 µM) | 1.6 (≈ 2.69 µM) | 3.1 (≈ 5.21 µM) | 3.1 (≈ 5.21 µM) | 
NC[C@H]1O[C@H](O[C@H]2[C@H](O)[C@@H](O[C@H]3O[C@H](CO)[C@@H](O)[C@H](N)[C@H]3O)[C@H](NC(=O)C(O)C3CCN3)C[C@@H]2N)[C@H](N)C[C@@H]1O (stereo partly shown) [(2), 1-N-[2-hydroxy-2-(azetidin-2-yl)acetyl]tobramycin] |  | > 100 |  |  |  |  |  | 12.5 (≈ 21.5 µM) |  | 0.1 (≈ 0.172 µM) | 50 (≈ 86.1 µM) |  | 6.2 (≈ 10.7 µM) | 1.6 (≈ 2.76 µM) | 0.8 (≈ 1.38 µM) | 1.6 (≈ 2.76 µM) | 6.2 (≈ 10.7 µM) | 3.1 (≈ 5.34 µM) |  | 3.1 (≈ 5.34 µM) | 
NC[C@H]1O[C@H](O[C@H]2[C@H](O)[C@@H](O[C@H]3O[C@H](CO)[C@@H](O)[C@H](N)[C@H]3O)[C@H](NC(=O)C(O)C3CNC3)C[C@@H]2N)[C@H](N)C[C@@H]1O (stereo partly shown) [(3), 1-N-[2-hydroxy-2-(azetidin-3-yl)acetyl]tobramycin] |  | 50 (≈ 86.1 µM) |  |  |  |  |  |  |  | 0.1 (≈ 0.172 µM) | 6.2 (≈ 10.7 µM) |  | 0.4 (≈ 0.689 µM) | 0.4 (≈ 0.689 µM) | 0.4 (≈ 0.689 µM) | 0.4 (≈ 0.689 µM) | 1.6 (≈ 2.76 µM) | 0.4 (≈ 0.689 µM) | 1.6 (≈ 2.76 µM) | 0.8 (≈ 1.38 µM) | 
